{"source": "patent US8440617B2", "about": "“Hyperbaric treatment in wound healing” (The Trustees of the University of Pennsylvania, priority 2007, dated 2013)", "key": {"[1]": {"test": "Induction of diabetes with STZ, serum glucose by glucometer", "type": "in vivo, mouse", "settings": "60 mg/kg i.p. daily for 5 d", "description": "(§1) Tie2-GFP, wild-type or chimeric FVB mice at 6-12 wk of age were treated with STZ (Sigma-Aldrich) to induce diabetes. Mice were rendered diabetic by i.p. administration of 60 mg/kg STZ in 50 mM sodium citrate, pH 4.5, daily for 5 d. Control mice were treated with daily injections of citrate buffer. Serum glucose was measured from the mouse tail vein using a glucometer. Once serum glucose reached 250 mg/dL, mice were followed with daily measurements for 1 wk prior to use in experiments. Serum glucose levels in STZ mice averaged 461 mg/dL with a range of 372-520 mg/dL, while control mice serum glucose mean level was 120 mg/dL with a range of 94-135 mg/dL. Wounds were induced on the ventral surface of the mouse thigh using a 4 mm punch biopsy. Full-thickness skin was removed, exposing the underlying muscle."}, "[2]": {"system": "EPC (cells co-expressing CD34 and Sca-1)", "test": "EPC mobilization (CD34+/Sca-1+ cells in peripheral blood) in mice exposed to HBO2", "type": "in vivo, mouse", "settings": "wild-type mice, 40 mg/kg i.p. 2 hours prior to pressurization", "description": "In the initial studies searching for the mechanisms for EPC mobilization with HBO2 EPC (assessed as cells that co-expressed CD34 and stem cell antigen-1 (Sca-1)) were also evaluated in peripheral blood of mice. […] In preliminary studies, mice were exposed to HBO2 for 90 minutes at up to 2.8 ATA and also to a pressure control, 2.8 ATA pressure using a gas containing 7.5% O2 (so that O2 partial pressure was the same as ambient air, 0.21 ATA O2). In select studies, mice were pre-treated with intraperitoneal L-nitroarginine methyl ester (L-NAME, to inhibit nitric oxide synthase [NOS]), 40 mg/kg i.p. administered 2 hours prior to pressurization). In anesthetized mice, blood was obtained by aortic puncture and bone marrow was harvested by clipping the ends off a tibia and flushing the marrow cavity with 1 ml PBS. Exposure to 2.8 ATA O2 (but not 100% O2 at ambient pressure or 2.8 ATA pressure at a total O2 partial pressure of only 0.21 ATA O2) increased EPC mobilization immediately after treatment, as well as 16 hrs post-treatment, and with repeated treatments (FIG. 4).\nThere is precedence for rapid mobilization of stem cells from bone marrow, but most emigration is believed to occur after a period of cell proliferation within the marrow niche."}, "[3]": {"system": "stem cell factor (SCF)", "test": "Plasma stem cell factor by Quantikine M immunoassay in mice (Table I)", "type": "in vivo, mouse", "settings": "for Plasma SCF if mice pre-treated with L-NAME: L-NAME pre-treatment"}, "[4]": {"system": "NO synthesis in bone marrow (NOS)", "test": "Real-time bone marrow NO measurement with NO microelectrode during HBO", "type": "in vivo, mouse", "description": "(§2) For HBO treatment, mice were placed in an animal hyperbaric chamber (Reneau Corp.) and subjected to 100% oxygen at 2.4 atmospheres absolute (ATA) for 90 min (Davis Wound Healing Protocol). To measure continuous, real-time BM NO levels, NO microelectrodes was inserted into the femoral marrow cavity as previously described. An osteotomy was created on the patellar surface of the murine femur using a 25 G beveled needle, allowing the electrode to be lowered into the marrow space when the animal was placed in the hyperbaric chamber. In some mice, pretreatment with L-NAME (40 mg/kg i.p.) (Sigma-Aldrich) was given 2 h prior to exposure to HBO.\nIn early studies, it was hypothesized that HBO2 augments stem cell mobilization because it stimulates •NO synthesis in the bone marrow, as •NO is known to play a central role with stem cell release from bone marrow. […] Mice were placed in a hyperbaric chamber where, while breathing air, baseline measurements were obtained. The chamber was then flushed with 100% O2 and compressed to 2.4 ATA O2.\nPhysiologically, the NO-mediated EPC release into circulation occurs in response to tissue-level hypoxia, although this compensatory response is inadequate in the setting of diabetes and results in severe defects in neovascularization and wound healing. […] Therefore, it was sought to utilize HBO as a tool to augment EPC release into circulation and further study both EPC mobilization and wound-homing mechanisms in the presence of diabetes. The goal was to determine whether hyperoxia stimulates NO production in the BM of diabetic mice via a NOS-mediated pathway and whether this pathway is impaired in diabetes. To test this hypothesis, Nafion polymer—coated NO microsensors were inserted into the femur BM space of both STZ induced diabetic and nondiabetic mice to measure real-time NO levels within the BM prior to and is during HBO-induced hyperoxia. […] It was speculated, that this was likely due to a compensatory effect from other NOS isoforms, and therefore the level of both iNOS and nNOS was examined in diabetic mice. […] However, no observation was made of any changes in the phosphorylation of these NOS isoforms."}, "[5]": {"system": "ischemic hindlimb wounds", "test": "Hindlimb ischemia (femoral ligation/excision): perfusion, wound BMD EPC and wound healing with daily HBO2", "type": "in vivo, mouse", "settings": "40 mg/kg i.p.", "description": "In addition, it was observed that HBO2 daily treatments (2.4ATA 100% O2 for 90 min) improved hindlimb perfusion by Laser Doppler Imaging (LDF) after femoral ligation/excision (FIG. 6) and increased the bone marrow-derived (BMD) EPC within the incisional wounds, 3 d post-wounding (with 4 HBO2 treatments) (FIG. 7). By day 8 after wounding, ischemic excisional punch biopsy wounds treated daily with HBO2 healed faster (FIG. 8). […] Each day animals were harvested, and blood (retro-orbital bleeding) and bone marrow (flushing of tibias and femurs) collected (3 mice for each time point had bone marrow collected and 5 mice for each time point had blood collected). VEGFR-2 (kdr) mRNA was semi-quantitated by RT PCR."}, "[6]": {"system": "circulating EPCs (CXCR4+/VEGFR2+, Tie2+/VEGFR2+)", "test": "Circulating EPCs by flow cytometry in STZ-diabetic mice", "type": "in vivo, mouse", "description": "as §1, §2\nMobilization of EPCs into circulation was studied using flow cytometry as previously described. Cells isolated from mice were incubated with various Abs (BD Biosciences). Isotype matched mouse immunoglobulins served as controls. One million viable cells were analyzed per sample using an LSR2 multicolor flow cytometer (BD Biosciences). Data was analyzed using FlowJo software (Treestar, Inc.).\nPhysiologically, increased levels of BM NO result in activation of MMP-9 and conversion of kit ligand to its soluble form, ultimately generating EPC release into circulation. To study the effects of the hyperoxia-induced rise in NO levels in the marrow cavity on mobilization of EPCs into circulation, peripheral blood from diabetic mice was analyzed for EPCs using flow cytometry. A determination of whether hyperoxia, induced by HBO, increases the number of circulating EPCs in the peripheral blood of diabetic mice was made. Specifically, peripheral blood of diabetic mice was examined 18 h after a single HBO treatment. After excluding dead DAPI^+labeled cells, candidate lymphocytes, identified by their typical appearance on forward and side scatter, were gated and CD45^+/CD3^+cell populations were excluded. […] Therefore, several marker combinations were used to quantitate circulating EPCs. […]"}, "[7]": {"system": "wound EPCs (GFP+/VEGFR2+)", "test": "EPC homing to wounds in diabetic GFP bone marrow chimeric mice", "type": "in vivo, mouse", "description": "All procedures were done with approval from the University of Pennsylvania Institutional Animal Care and Use Committee (IACUC). 6-12 wk-old FVB wild-type mice (FVB/NJ), GFP (FVB/Tg) and Tie2-GFP (Tg(TIE2GFP)87 Sato/J) were purchased from The Jackson Laboratory. For all surgical procedures, mice were anesthetized with an i.p. injection of 80 mg/kg of ketamine (Phoenix Scientific, Inc.) and 20 mg/kg xylazine (Vedco Inc.). For BM transplantation experiments, 1×10^7 BM cells from GFP mice were transplanted to γ-irradiated (900 Rad) FVB wild type mouse via tail vein. […] For local wound SDF-1α injection, SDF-1α protein (R&D Systems) was reconstituted in PBS and injected into the wound base (25 μg/Kg).\nFor immunostaining, paraffin embedded serial sections (5 μm) were first underwent standard deparaffinizing and rehydration procedures and then probed with various Abs. To assess wound SDF-1α^+ cells, sections were double-stained with HTC-conjugated anti-SDF-1α and PE-conjugated different tissue-specific Abs (eBiosciences). To detect blood vessels in wound, sections were stained with HTC-conjugated anti-VEGFR2Ab. […] Tissue sections were analyzed using fluorescence microscopy and ImageJ (NIH) software to quantitate fluorescent intensity. In trichrome stained slides, blue stain (collagen content) was also quantitatively analyzed by ImageJ. […]"}, "[8]": {"system": "diabetic cutaneous wounds", "test": "Peripheral wound healing (wound closure) in diabetic mice", "type": "in vivo, mouse", "settings": "diabetic mice, 6 d post-wounding, FIG. 17A", "description": "as §1\nInitial wound surface area was recorded and wounds were then followed serially with daily digital photographs using an Olympus digital camera. Photographs contained an internal scale to allow for standard calibration of measurements. Wound area was quantified using ImageJ software. Wound area was expressed as the percentage of original wound size. Wounds were followed for 6 d and mice were sacrificed at the conclusion of the experiment.\nEPCs play a key role in vasculogenesis and cutaneous tissue repair. It was hypothesized that increased numbers of EPCs in circulation, along with enhanced EPC homing to wounds, results in improved wound healing in diabetes. Diabetic wound closure rates were studied, in response to treatment with HBO and SDF-1α alone and in combination. Wounded diabetic mice underwent daily wound injections with SDF-1α, PBS, HBO, or SDF-1α+HBO treatments. […] This healing response was greater than the response to either treatment modality alone. In addition, histochemical analysis was conducted to examine blood vessel density (VEGFR2 staining), cellularity and stromagenesis (H&E staining), and extracellular constitution (trichrome staining) in wound tissues. […]"}, "[9]": {"system": "wound granulation tissue", "test": "Histochemistry of diabetic wound tissue (VEGFR2 vessel density, H&E, trichrome collagen)", "type": "in vivo, mouse", "settings": "diabetic wounds at d 6, FIG. 17D-E", "source_text": "(§3) For immunostaining, paraffin embedded serial sections (5 μm) were first underwent standard deparaffinizing and rehydration procedures and then probed with various Abs. To assess wound SDF-1α^+ cells, sections were double-stained with HTC-conjugated anti-SDF-1α and PE-conjugated different tissue-specific Abs (eBiosciences). To detect blood vessels in wound, sections were stained with HTC-conjugated anti-VEGFR2Ab. For examination of wound EPC recruitment in BM transplantation experiment, sections were double-stained with FITC-GFP and PE-VEGFR2 (BD Biosciences). Nuclei were counterstained with Hoescht dye. Masson's trichrome staining and H&E staining were performed using standard method and all reagents were from Sigma-Aldrich. Tissue sections were analyzed using fluorescence microscopy and ImageJ (NIH) software to quantitate fluorescent intensity. In trichrome stained slides, blue stain (collagen content) was also quantitatively analyzed by ImageJ.\nEPCs play a key role in vasculogenesis and cutaneous tissue repair. It was hypothesized that increased numbers of EPCs in circulation, along with enhanced EPC homing to wounds, results in improved wound healing in diabetes. Diabetic wound closure rates were studied, in response to treatment with HBO and SDF-1α alone and in combination. Wounded diabetic mice underwent daily wound injections with SDF-1α, PBS, HBO, or SDF-1α+HBO treatments. […]"}, "[10]": {"test": "Mouse serum SDF-1α ELISA after wound injection", "type": "in vivo", "settings": "2 h following wound injection of SDF-1α", "description": "Mouse serum SDF-1α concentration was measured by Quantikine® mouse SDF-1α ELISA kit (R&D Systems) based on manufacturer's protocol."}, "[11]": {"system": "SDF-1α in wound tissue", "test": "Wound SDF-1α level (immunostaining)", "type": "in vivo, mouse", "settings": "after SDF-1α injection, compared to nondiabetic wound", "source_text": "as §3"}}, "note": "“Also recorded” adds a separate entry of the source.", "data": [{"compound": "CN(N=O)C(=O)N[C@@H](C=O)[C@@H](O)[C@H](O)[C@H](O)CO", "note": "[STZ, streptozocin]", "values": [{"measurement": "Serum glucose, average", "setting": "[1]", "value": 461, "unit": "mg/dL"}, {"measurement": "Serum glucose, range", "setting": "[1]", "value": "372 to 520", "unit": "mg/dL"}]}, {"compound": "COC(=O)[C@@H](N)CCCNC(=N)N[N+](=O)[O-]", "note": "[L-NAME, L-nitroarginine methyl ester]", "values": [{"measurement": "EPC mobilization with L-NAME injected before HBO2", "setting": "[2]", "value": "did not occur"}, {"measurement": "Plasma SCF if mice pre-treated with L-NAME", "setting": "[3]; air-breathing (control) mice", "value": "39.4 ± 1.9", "unit": "pg/mL"}, {"measurement": "Plasma SCF if mice pre-treated with L-NAME", "setting": "[3]; then 2.8 ATA O2, 16 hours after", "value": "42.4 ± 2.5", "unit": "pg/mL"}, {"measurement": "HBO2-induced SCF elevation with L-NAME", "setting": "[3]; mouse, in vivo", "value": "blocked"}, {"measurement": "NO signal in bone marrow with L-NAME pre-treatment", "setting": "[4]; 40 mg/kg ip before 2.4 ATA O2", "value": "no •NO signal was detected"}, {"measurement": "hyperoxia-induced increases in BM NO production after pretreatment", "setting": "[4]; diabetic and nondiabetic mice", "value": "completely inhibited; also recorded: Complete inhibition"}, {"measurement": "HBO2 wound healing improvements with L-NAME prior to HBO2", "setting": "[5]", "value": "not observed"}, {"measurement": "EPC mobilization following HBO in L-NAME pre-treated animals", "setting": "[6]; mouse, in vivo", "value": "No increase; also recorded: inhibited"}]}, {"compound": "SDF-1α", "values": [{"measurement": "circulating EPCs versus other groups / PBS", "setting": "[6]; wounded diabetic mice, 48 h post-wounding, FIG. 15A", "value": "statistically significant increase"}, {"measurement": "increase in circulating EPCs (CXCR4+/VEGFR2+)", "setting": "[6]; wounded diabetic mice, daily treatment, 48 h post-wounding", "value": 2, "unit": "fold"}, {"measurement": "increase in wound-level EPCs (GFP+/VEGFR2+)", "setting": "[7]; diabetic chimeric mice, 3 d of treatment, vs untreated diabetic mice", "value": 3, "unit": "fold"}, {"measurement": "EPCs recruited/homing to wound tissue", "setting": "[7]; diabetic mice", "value": "significant increase"}, {"measurement": "wound healing rates compared with PBS treated controls", "setting": "[8]", "value": "statistically improved"}, {"measurement": "collagen deposit and vessel density", "setting": "[9]", "value": "significant increase"}, {"measurement": "systemic (peripheral blood) SDF-1α concentration", "setting": "[10]", "value": "increased"}, {"measurement": "local SDF-1α level in diabetic wound", "setting": "[11]", "value": "dramatically increased"}]}]}
